Experiment: Stability test at 5° C. in a sealed package after 6 and 12 months (impurity content)
Type: physicochemical
Settings: external 20% humidity, % of the total weight of the composition
Procedure: The compositions as gelatin capsules are housed in a sealed package (T0) and stored at 5° C. with an external 20% humidity rate. Next, the impurity content (in % of the total weight of the composition) is dosed after 6 and 12 months (T6 and T12 respectively) and compared to that dosed beforehand at T0. The difference between the percentages at T6 and T0 and then T12 and T0 indicate the change in the impurity content.
It is compared with that obtained for freeze-dried vinorelbine ditartrate stored under the same conditions.
This operating procedure was applied in the following Examples 2 to 5.

## CCC1=C[C@@H]2CN(C1)Cc1c([nH]c3ccccc13)[C@@](C(=O)OC)(c1cc3c(cc1OC)N(C)[C@H]1[C@@](O)(C(=O)OC)[C@H](OC(C)=O)[C@]4(CC)C=CCN5CC[C@]31[C@@H]54)C2 [Vinorelbine ditartrate, vinorelbine ditartrate]
  Change in impurity content T0 to T12: T0 to T12: +0.79%
